Where two headings read alike, the source gives them in different places.
Assays:
[1] = molecular target: T1, SOS1 and KRAS G12C interaction (Homo sapiens, UniProt Q07889); experiment: Biochemical analysis of the inhibitory activity of SOS1 and KRAS G12C interaction (time-resolved fluorescence, 665/615 nm)
T1 sequence (Q07889 564-1049 limits assumed): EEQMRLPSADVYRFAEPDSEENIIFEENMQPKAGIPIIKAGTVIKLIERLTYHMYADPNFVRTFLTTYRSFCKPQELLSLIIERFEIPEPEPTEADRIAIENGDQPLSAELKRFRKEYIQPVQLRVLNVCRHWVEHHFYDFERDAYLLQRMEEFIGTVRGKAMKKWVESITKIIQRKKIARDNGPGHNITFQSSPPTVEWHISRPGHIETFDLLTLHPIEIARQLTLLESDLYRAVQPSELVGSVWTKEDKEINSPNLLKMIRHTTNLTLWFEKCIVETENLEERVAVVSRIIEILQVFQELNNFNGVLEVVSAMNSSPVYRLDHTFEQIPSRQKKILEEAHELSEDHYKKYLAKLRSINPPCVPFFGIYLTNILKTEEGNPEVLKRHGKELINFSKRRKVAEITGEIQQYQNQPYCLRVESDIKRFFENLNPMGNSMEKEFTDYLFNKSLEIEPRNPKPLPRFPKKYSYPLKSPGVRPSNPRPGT
Description: Biochemical analysis of the inhibitory activity of SOS1 and KRAS G12C interaction
In this experimental example, the efficacy of the compound according to the present invention in inhibiting the binding of KRAS and SOS1 was biochemically measured. A KRAS G12C working solution was prepared by adding biotin-linked KRAS G12C protein and europium-linked streptavidin to assay buffer solution (20 mM HEPES, 50 mM NaCl, 200 µg/mL […] (BSA), 0.01% Pluronic F127). Then, SOS1, in which a tag consisting of six histidine residues is covalently linked, and anti-histidine tag antibody D2 were added to the assay buffer to prepare an SOS1 working solution. After these two working solutions were added to the wells of a well plate, solutions diluted according to the experimental concentration of the test compound from the 10 mM dimethyl sulfoxide (DMSO) stock solution of the Example compound or positive control compound were added to the wells in 100 nL aliquots using an Echo automatic dispenser (Beckman Coulter, USA), or a DMSO blank was added to the wells.

NCI-H358 = experiment: Cell Growth Inhibition Assay (3D CellTiter-Glo); format: cell-based; details: Homo sapiens, read-out: Cell growth IC50
Description: Cell Growth Inhibition Assay
In this experimental example, the cell growth inhibitory effect of compounds according to the present invention and positive control compounds in tumor cell lines was examined.
The cell culture medium containing the compound was replaced by 100 µL every 3 days. Luminescence analysis was performed using the 3D CellTiter-Glo Luminescent Cell Viability Assay Kit (Promega, USA) (Promega catalog number G9681). […] The percent cell growth inhibition rate was calculated from the measured relative luminescence unit (RLU) as follows. Inhibition rate = 1−((RLU compound−RLU blank)/(RLU control−RLU blank)) X 100 [formula]

[2] = molecular target: T2, SOS2 and KRAS G12C interaction (Homo sapiens, UniProt Q07890); format: biochemical; details: SOS2, KRAS G12Cs; read-out: Enzyme activity IC50
T2 sequence (Q07890 1-1332): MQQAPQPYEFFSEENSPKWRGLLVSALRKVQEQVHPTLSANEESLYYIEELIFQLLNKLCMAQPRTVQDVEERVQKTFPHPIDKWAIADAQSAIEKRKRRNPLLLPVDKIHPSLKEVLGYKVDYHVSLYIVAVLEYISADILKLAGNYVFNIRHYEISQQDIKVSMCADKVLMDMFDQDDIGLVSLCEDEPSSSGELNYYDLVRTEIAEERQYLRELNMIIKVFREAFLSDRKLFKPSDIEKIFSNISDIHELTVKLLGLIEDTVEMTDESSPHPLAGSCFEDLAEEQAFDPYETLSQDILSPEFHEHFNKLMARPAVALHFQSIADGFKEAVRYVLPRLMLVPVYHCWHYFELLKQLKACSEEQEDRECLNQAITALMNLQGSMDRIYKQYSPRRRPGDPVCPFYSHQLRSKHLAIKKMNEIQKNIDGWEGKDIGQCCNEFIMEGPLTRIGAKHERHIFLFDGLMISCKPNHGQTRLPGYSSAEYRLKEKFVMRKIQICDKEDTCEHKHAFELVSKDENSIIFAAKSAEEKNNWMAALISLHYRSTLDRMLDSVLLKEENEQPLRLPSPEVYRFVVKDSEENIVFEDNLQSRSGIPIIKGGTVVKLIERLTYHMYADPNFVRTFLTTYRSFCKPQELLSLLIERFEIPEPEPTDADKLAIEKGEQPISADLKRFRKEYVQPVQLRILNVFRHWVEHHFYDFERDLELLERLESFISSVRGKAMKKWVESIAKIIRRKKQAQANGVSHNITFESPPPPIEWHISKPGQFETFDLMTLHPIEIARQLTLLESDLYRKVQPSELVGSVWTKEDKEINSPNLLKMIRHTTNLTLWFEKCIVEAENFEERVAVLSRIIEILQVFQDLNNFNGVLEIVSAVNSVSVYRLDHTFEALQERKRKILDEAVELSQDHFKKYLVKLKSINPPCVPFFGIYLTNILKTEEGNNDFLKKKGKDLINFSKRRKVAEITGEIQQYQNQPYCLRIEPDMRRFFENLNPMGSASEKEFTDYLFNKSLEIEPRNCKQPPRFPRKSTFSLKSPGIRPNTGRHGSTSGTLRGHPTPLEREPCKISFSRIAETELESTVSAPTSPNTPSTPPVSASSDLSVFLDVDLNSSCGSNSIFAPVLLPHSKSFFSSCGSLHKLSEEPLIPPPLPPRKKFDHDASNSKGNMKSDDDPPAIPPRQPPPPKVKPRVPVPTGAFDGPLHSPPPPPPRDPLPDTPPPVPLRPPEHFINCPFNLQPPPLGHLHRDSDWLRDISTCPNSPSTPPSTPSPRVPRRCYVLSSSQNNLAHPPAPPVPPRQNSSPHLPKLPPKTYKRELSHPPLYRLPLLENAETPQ

MIA-PaCa-2 = experiment: Reactive oxygen species (ROS) production assay; format: cell-based; details: MIA-PaCa-2 cells, 10 µM, 24 hours; Figure 3
Description: Reactive oxygen species (ROS) production assay
In this experimental example, it was examined that the compound according to the present invention has the effect of increasing reactive oxygen in tumor cells.
MIA-PaCa-2 (Korea Cell Line Bank KCLB No. 21420), a cancer cell line harboring KRAS G12C mutation, was cultured in a cell culture medium containing RPMI1640 (Gibco, USA, catalog no. 11875-119), 10% fetal bovine serum (HyClone, USA, catalog no. SH30919.03), and 1 × diluted HyClone Antibiotic Antimycotic solution (HyClone, USA, catalog no. SV30079.01). 3 × 10^5 cells were seeded per well in a 6-well plate and cultured for 1 day at 37°C under 5% CO2 conditions. […] The cells were then collected in a microtube and analyzed for fluorescence using a BD LSRFortessa™ X-20 Cell Analyzer (BD Biosciences, USA) (excitation wavelength: 488 nm, emission wavelength: 535 nm). The fluorescence intensity due to the increase in reactive oxygen species was measured for 10,000 cells. Among the cells treated with 500 µM hydrogen peroxide, which was the positive control, the section in which the fluorescence intensity increased compared to the cells treated with the blank sample was found, and the average fluorescence intensity of the cells within this section was calculated. […]

[3] = SOS1, KRAS G12C, 60 minutes at room temperature, read-out: Enzyme activity IC50

Compound | IC50 [1] | IC50 (NCI-H358; NCI-H358, 288 h) | other results
COc1cc2nc(C)nc(N[C@H](C)c3cc(-c4ccccc4CN4CCCC4)c[se]3)c2cc1OC [Example 6, (R)-6,7-dimethoxyl-2-methyl-N-(1-(4-(2-(pyrrolidine-1-ylmethyl)phenyl)selenophen-2-yl)ethyl)quinazolin-4-amine] | 76 nM | 87.5 nM | 
CNCc1ccccc1-c1csc([C@H](C)Nc2nc(C)nc3cc(OC)c(OC)cc23)c1 [BAY-293, (S)-6,7-dimethoxy-2-methyl-N-[1-[4-[2-[(methylamino)methyl]phenyl]thiophene-2-yl]ethyl]quinazolin-4-amine, reference compound] |  |  | IC50 (NCI-H358; 288 h, NCI-H358 (KRAS G12C), 96-well 3D assay plate, 12 days): 136 nM
CNCc1ccccc1-c1c[se]c([C@@H](C)Nc2nc(C)nc3cc(OC)c(O[C@H]4CCOC4)cc23)c1 [Example 2, 7-methoxy-2-methyl-N-((R)-1-(4-(2-((methylamino)methyl)phenyl)selenophen-2-yl)ethyl)-6-(((S)-tetrahydrofuran-3-yl)oxy)quinazolin-4-amine] | 16.6 nM | 58.7 nM | 
CNCc1ccccc1-c1c[se]c([C@@H](C)Nc2nc(Cl)nc3c2CN(C(=O)C2(OC)CCOCC2)C3)c1 [Example 3, (R)-(2-chloro-4-((1-(4-(2-((methylamino)methyl)phenyl)selenophen-2-yl)ethyl)amino)-5,7-dihydro-6H-pyrolo[3,4-d]pyrimidine-6-yl)(4-methoxytetrahydro-2H-pyran-4-yl)methanone] | 34.7 nM | 124 nM | 
[2H]C([2H])([2H])NCc1ccccc1-c1c[se]c([C@@H](C)Nc2nc(C)nc3cc(OC)c(OC)cc23)c1 [Example 7, (R)-6,7-dimethoxyl-2-methyl-N-(1-(4-(2-(((methyl-d3)amino)methyl)phenyl)selenophen-2-yl)ethyl)quinazolin-4-amine] | 19.3 nM | 25.6 nM | 
COc1cc2nc(C)nc(N[C@H](C)c3cc(-c4ccccc4CN4CCCC4)c[se]3)c2cc1O[C@H]1CCOC1 [Example 9, 7-methoxy-2-methyl-N-((R)-1-(4-(2-(pyrrolidine-1-ylmethyl)phenyl)selenophen-2-yl)ethyl)-6-(((S)-tetrahydrofuran-3-yl)oxy)quinazolin-4-amine] |  |  | IC50 [1, 3]: 22.5 nM
CNCc1ccccc1-c1c[se]c([C@@H](C)Nc2nnc(C)c3cnc(N4CCOCC4)cc23)c1 [Example 4, (R)-4-methyl-N-(1-(4-(2-((methylamino)methyl)phenyl)selenophen-2-yl)ethyl)-7-morpholinopyrido[3,4-d]pyridazine-1-amine] | 13.4 nM | 51.7 nM | 
COc1cc2nc(C)nc(N[C@H](C)c3cc(-c4ccccc4CN(C)C)c[se]3)c2cc1OC [Example 5, (R)-N-(1-(4-(2-((dimethylamino)methyl)phenyl)selenophen-2-yl)ethyl)-6,7-dimethoxyl-2-methylquinazolin-4-amine] | 27.7 nM | 50 nM | 
Cc1c(C#N)cccc1[C@@H](C)Nc1nnc(C)c2cnc(N3CCOCC3)cc12 [MRTX0902, (R)-2-methyl-3-(1-((4-methyl-7-morpholinopyrido[3,4-d]pyridazine-1-yl)amino)ethyl)benzonitrile, reference compound] |  | 108 nM | IC50 [2]: 1640 nM; ROS production compared to the blank sample (MIA-PaCa-2): did not increase ROS production
COc1cc2nc(C)nc(N[C@H](C)c3cc(-c4ccccc4CN(C)C)c[se]3)c2cc1O[C@H]1CCOC1 [Example 8, N-((R)-1-(4-(2-((dimethylamino)methyl)phenyl)selenophen-2-yl)ethyl)-7-methoxy-2-methyl-6-(((S)-tetrahydrofuran-3-yl)oxy)quinazolin-4-amine] |  |  | IC50 [1, 3]: 16.2 nM
